Measurements published in the NIST ThermoML archive (doi:10.1021/acs.jced.8b00070).
± gives the expanded uncertainty stated by the source.

Test: xn = mol fraction of the nth substance listed
Details: Liquid; for viscosity: Oscillating disk viscometry; for mass density: Vibrating tube method

CCCCn1cc[n+](C)c1.F[B-](F)(F)F [1-butyl-3-methylimidazolium tetrafluoroborate] + O
Details | mass density, x1 = 0.01 [kg/m3] | mass density, x1 = 0.0227 [kg/m3] | mass density, x1 = 0.0392 [kg/m3] | mass density, x1 = 0.0616 [kg/m3] | mass density, x1 = 0.0938 [kg/m3] | viscosity, x1 = 0.01 [mPa·s] | viscosity, x1 = 0.0227 [mPa·s] | viscosity, x1 = 0.0392 [mPa·s] | viscosity, x1 = 0.0616 [mPa·s] | viscosity, x1 = 0.0938 [mPa·s]
293.15 K, 101 kPa | – | – | – | – | – | 1.07 ± 0.32 | 1.35 ± 0.41 | 1.84 ± 0.55 | 2.28 ± 0.69 | 3.04 ± 0.91
293.15 K, 101.3 kPa | 1018.9 ± 2.1 | 1038.1 ± 2.1 | 1060.4 ± 2 | 1079.5 ± 2 | 1103.7 ± 2 | – | – | – | – | –
298.15 K, 101 kPa | – | – | – | – | – | 0.95 ± 0.29 | 1.19 ± 0.36 | 1.6 ± 0.48 | 1.98 ± 0.6 | 2.69 ± 0.81
298.15 K, 101.3 kPa | 1017.1 ± 2.1 | 1036 ± 2.1 | 1058 ± 2 | 1076.7 ± 2 | 1100.6 ± 2 | – | – | – | – | –
303.15 K, 101 kPa | – | – | – | – | – | 0.84 ± 0.25 | 1.05 ± 0.32 | 1.4 ± 0.42 | 1.75 ± 0.53 | 2.34 ± 0.7
303.15 K, 101.3 kPa | 1015.2 ± 2.1 | 1033.5 ± 2.1 | 1055.3 ± 2 | 1073.6 ± 2 | 1097.2 ± 2 | – | – | – | – | –
308.15 K, 101 kPa | – | – | – | – | – | 0.76 ± 0.23 | 0.95 ± 0.29 | 1.25 ± 0.38 | 1.56 ± 0.47 | 2.06 ± 0.62
308.15 K, 101.3 kPa | 1013.2 ± 2.1 | 1031.3 ± 2.1 | 1052.6 ± 2 | 1070.7 ± 2 | 1093.9 ± 2 | – | – | – | – | –
313.15 K, 101 kPa | – | – | – | – | – | 0.69 ± 0.21 | 0.86 ± 0.26 | 1.13 ± 0.34 | 1.4 ± 0.42 | 1.84 ± 0.55
313.15 K, 101.3 kPa | 1010.9 ± 2.1 | 1028.6 ± 2.1 | 1049.8 ± 2 | 1067.5 ± 2 | 1090.5 ± 2 | – | – | – | – | –
318.15 K, 101 kPa | – | – | – | – | – | 0.64 ± 0.19 | 0.79 ± 0.24 | 1.02 ± 0.31 | 1.27 ± 0.38 | 1.66 ± 0.5
318.15 K, 101.3 kPa | 1008.6 ± 2.1 | 1025.9 ± 2.1 | 1046.9 ± 2 | 1064.3 ± 2 | 1087.4 ± 2 | – | – | – | – | –
323.15 K, 101 kPa | – | – | – | – | – | 0.59 ± 0.18 | 0.74 ± 0.22 | 0.94 ± 0.28 | 1.16 ± 0.35 | 1.48 ± 0.45
323.15 K, 101.3 kPa | 1006.1 ± 2.1 | 1023.4 ± 2.1 | 1044 ± 2 | 1061.2 ± 2 | 1084.1 ± 2 | – | – | – | – | –
328.15 K, 101 kPa | – | – | – | – | – | 0.55 ± 0.17 | 0.69 ± 0.21 | 0.88 ± 0.27 | 1.07 ± 0.32 | 1.31 ± 0.39
328.15 K, 101.3 kPa | 1001.8 ± 2.1 | 1019.8 ± 2.1 | 1041.4 ± 2 | 1058.3 ± 2 | 1080.9 ± 2 | – | – | – | – | –
333.15 K, 101 kPa | – | – | – | – | – | 0.53 ± 0.16 | 0.62 ± 0.19 | 0.82 ± 0.25 | 0.99 ± 0.3 | 1.26 ± 0.38
333.15 K, 101.3 kPa | 999.2 ± 2.1 | 1017.6 ± 2.1 | 1040.6 ± 2.1 | 1057.4 ± 2 | 1079.9 ± 2 | – | – | – | – | –

NCCO [2-aminoethan-1-ol] + O
101.3 kPa
Details | mass density, x1 = 0.0394 [kg/m3] | mass density, x1 = 0.087 [kg/m3] | mass density, x1 = 0.1456 [kg/m3] | mass density, x1 = 0.2197 [kg/m3] | viscosity, x1 = 0.0394 [mPa·s] | viscosity, x1 = 0.087 [mPa·s] | viscosity, x1 = 0.1456 [mPa·s] | viscosity, x1 = 0.2197 [mPa·s]
293.15 K | 1005.3 ± 2 | 1011.8 ± 2 | 1018.9 ± 2 | 1025.7 ± 2 | 1.19 ± 0.36 | 2.1 ± 0.63 | 3.06 ± 0.92 | 5.58 ± 1.7
298.15 K | 1003.8 ± 2 | 1009.9 ± 2 | 1016.3 ± 2 | 1022.7 ± 2 | 1.06 ± 0.32 | 1.71 ± 0.52 | 2.69 ± 0.81 | 4.67 ± 1.4
303.15 K | 1002.1 ± 2 | 1007.7 ± 2 | 1013.7 ± 2 | 1019.7 ± 2 | 0.94 ± 0.28 | 1.47 ± 0.44 | 2.29 ± 0.69 | 3.91 ± 1.2
308.15 K | 1000.3 ± 2 | 1005.6 ± 2 | 1011.2 ± 2 | 1016.8 ± 2 | 0.85 ± 0.26 | 1.3 ± 0.39 | 1.91 ± 0.58 | 3.28 ± 0.99
313.15 K | 998.2 ± 2 | 1003.2 ± 2 | 1008.5 ± 2 | 1013.6 ± 2 | 0.76 ± 0.23 | 1.15 ± 0.35 | 1.69 ± 0.51 | 2.77 ± 0.83
318.15 K | 996 ± 2 | 1000.7 ± 2 | 1005.7 ± 2 | 1010.5 ± 2 | 0.69 ± 0.21 | 1.03 ± 0.31 | 1.5 ± 0.45 | 2.39 ± 0.72
323.15 K | 993.8 ± 2 | 998.2 ± 2 | 1002.8 ± 2 | 1007.3 ± 2 | 0.63 ± 0.19 | 0.93 ± 0.28 | 1.33 ± 0.4 | 2.11 ± 0.64
328.15 K | 988.9 ± 2 | 995.8 ± 2 | 1000.1 ± 2 | 1004.4 ± 2 | 0.58 ± 0.18 | 0.85 ± 0.26 | 1.17 ± 0.35 | 1.85 ± 0.56
333.15 K | 987.2 ± 2 | 995.1 ± 2 | 999.3 ± 2 | 1003.2 ± 2 | 0.54 ± 0.16 | 0.79 ± 0.24 | 1.05 ± 0.32 | 1.65 ± 0.5
